# Results published in patent US20250163104A1, “MACROCYCLIC IMMUNOMODULATORS” (priority 2021, published 2025).
# Where a SMILES comes first, the peptide text is derived from it. Bridges are numbered along the chain shown (N, C = ends). [ ]: non-standard residue; d: D form. The star is where a group is joined. ξ: configuration not given here. Bip = N[C@@H](Cc1ccc(-c2ccccc2)cc1)C(=O)O; Orn(N3) = [N-]=[N+]=NCCC[C@H](N)C(=O)O; Dap(N3) = [N-]=[N+]=NC[C@H](N)C(=O)O; ξLys(N3) = [N-]=[N+]=NCCCCC(N)C(=O)O; Aha = [N-]=[N+]=NCC[C@H](N)C(=O)O; Cha = N[C@@H](CC1CCCCC1)C(=O)O; Carboxymethyl = O=C(O)C*; Orn = NCCC[C@H](N)C(=O)O; Pra = C#CC[C@H](N)C(=O)O; Dab = NCC[C@H](N)C(=O)O; Dap = NC[C@H](N)C(=O)O; Bn = c1ccc(C*)cc1; Propargyl = C#CC*
# Target: T1, human PD-1 / PD-L1-Ig binding on Jurkat cell line over-expressing human PD-1 (Jurkat-PD-1) (Homo sapiens, UniProt Q15116)
# T1 construct: expressed in transfected cells; host or cells: Jurkat
# T1 sequence (Q15116 25-288): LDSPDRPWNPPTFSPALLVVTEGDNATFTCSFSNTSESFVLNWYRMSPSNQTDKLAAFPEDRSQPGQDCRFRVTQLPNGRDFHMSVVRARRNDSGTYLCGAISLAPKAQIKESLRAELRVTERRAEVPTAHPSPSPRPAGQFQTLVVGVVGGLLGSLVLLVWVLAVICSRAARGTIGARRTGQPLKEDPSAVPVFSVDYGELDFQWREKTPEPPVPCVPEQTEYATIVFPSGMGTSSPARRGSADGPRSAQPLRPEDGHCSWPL
# Experiment: Jurkat-PD-1 Cell Binding High-Content Screening Assay (CBA)
# Assay type: cell-based
# Details: Jurkat HPD1_PDL1 IC50, Jurkat-PD-1 cells, PE-labeled PD-L1-Ig 20 nM final
# How it was run: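 Jurkat-hPD-1 cells in DMEM with 10% fetal calf serum receive test compound and are held at 37° C for 2 h. PE-labeled PD-L1-Ig is added at 20 nM final and left for 1 hour. Cells are then fixed and Hoechst-stained, and binding is measured by imaging.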
row,Compound,IC50 [nM]
1,CC(C)C[C@H]1NC(=O)[C@H](CCCN)NC(=O)[C@H](C(C)C)NC(=O)[C@H](Cc2ccc(-c3ccccc3)cc2)NC(=O)[C@H](C(C)C)NC(=O)[C@H](Cc2c[nH]c3ccccc23)NC(=O)[C@H](CC(=O)O)NC(=O)[C@H](Cc2ccc(OCC(=O)O)cc2)NC(=O)[C@H](Cc2ccc(OCc3ccccc3)cc2)NC(=O)CSC[C@@H](C(=O)N[C@@H](C)C(N)=O)NC(=O)[C@H]([C@@H](C)O)NC(=O)[C@H](C(C)C)NC(=O)[C@H](CC2CCCCC2)NC(=O)[C@H](CCN)NC1=O [Compound 1527],103
2,CC(C)C[C@H]1NC(=O)[C@H](CCCN)NC(=O)[C@H](C(C)C)NC(=O)[C@H](Cc2ccc(-c3ccccc3)cc2)NC(=O)[C@H](C(C)C)NC(=O)[C@H](Cc2c[nH]c3ccccc23)NC(=O)[C@H](CC(=O)O)NC(=O)[C@H](Cc2ccc(OCc3ccccc3)cc2)NC(=O)[C@H](CN)NC(=O)CSC[C@@H](C(=O)N[C@@H](C)C(N)=O)NC(=O)[C@H]([C@@H](C)O)NC(=O)[C@H](C(C)C)NC(=O)[C@H](CC2CCCCC2)NC(=O)[C@H](CCN)NC1=O [Compound 1528],100
3,CC(C)C[C@H]1NC(=O)[C@H](CCCN)NC(=O)[C@H](C(C)C)NC(=O)[C@H](Cc2ccc(-c3ccccc3)cc2)NC(=O)[C@H](Cc2ccc(OCc3ccccc3)cc2)NC(=O)[C@H](Cc2c[nH]c3ccccc23)NC(=O)[C@H](CC(=O)O)NC(=O)[C@H](Cc2ccc(OCC(=O)O)cc2)NC(=O)[C@H](CN)NC(=O)CSC[C@@H](C(=O)N[C@@H](C)C(N)=O)NC(=O)[C@H]([C@@H](C)O)NC(=O)[C@H](C(C)C)NC(=O)[C@H](CC2CCCCC2)NC(=O)[C@H](CCN)NC1=O [Compound 1529] ({CH2CO}-[Dap]Y(Carboxymethyl)DWY(Bn)[Bip]V[Orn][dL][Dab][Cha]VTCA-NH2; thioether N-14),43.5
4,CC(C)C[C@H]1NC(=O)[C@H](CCCN)NC(=O)[C@H](Cc2ccc(OCc3ccccc3)cc2)NC(=O)[C@H](Cc2ccc(-c3ccccc3)cc2)NC(=O)[C@H](C(C)C)NC(=O)[C@H](Cc2c[nH]c3ccccc23)NC(=O)[C@H](CC(=O)O)NC(=O)[C@H](Cc2ccc(OCC(=O)O)cc2)NC(=O)[C@H](CN)NC(=O)CSC[C@@H](C(=O)N[C@@H](C)C(N)=O)NC(=O)[C@H]([C@@H](C)O)NC(=O)[C@H](C(C)C)NC(=O)[C@H](CC2CCCCC2)NC(=O)[C@H](CCN)NC1=O [Compound 1530],94.9
5,CC(C)C[C@H]1NC(=O)[C@H](CCCN)NC(=O)[C@H](C(C)C)NC(=O)[C@H](Cc2ccc(-c3ccccc3)cc2)NC(=O)[C@H](C(C)C)NC(=O)[C@H](Cc2c[nH]c3ccccc23)NC(=O)[C@H](CC(=O)O)NC(=O)[C@H](Cc2ccc(OCC(=O)O)cc2)NC(=O)[C@H](CN)NC(=O)CSC[C@@H](C(=O)N[C@@H](C)C(N)=O)NC(=O)[C@H]([C@@H](C)O)NC(=O)[C@H](C(C)C)NC(=O)[C@H](CC2CCCCC2)NC(=O)[C@H](Cc2ccc(OCc3ccccc3)cc2)NC1=O [Compound 1531] ({CH2CO}-[Dap]Y(Carboxymethyl)DWV[Bip]V[Orn][dL]Y(Bn)[Cha]VTCA-NH2; thioether N-14),707
6,CC(C)C[C@H]1NC(=O)[C@H](CCCN)NC(=O)[C@H](C(C)C)NC(=O)[C@H](Cc2ccc(-c3ccccc3)cc2)NC(=O)[C@H](C(C)C)NC(=O)[C@H](Cc2c[nH]c3ccccc23)NC(=O)[C@H](CC(=O)O)NC(=O)[C@H](Cc2ccc(OCC(=O)O)cc2)NC(=O)[C@H](CN)NC(=O)CSC[C@@H](C(=O)N[C@@H](C)C(N)=O)NC(=O)[C@H]([C@@H](C)O)NC(=O)[C@H](Cc2ccc(OCc3ccccc3)cc2)NC(=O)[C@H](CC2CCCCC2)NC(=O)[C@H](CCN)NC1=O [Compound 1532] ({CH2CO}-[Dap]Y(Carboxymethyl)DWV[Bip]V[Orn][dL][Dab][Cha]Y(Bn)TCA-NH2; thioether N-14),111
7,CC(C)C[C@H]1NC(=O)[C@H](CCCN)NC(=O)[C@H](C(C)C)NC(=O)[C@H](Cc2ccc(-c3ccccc3)cc2)NC(=O)[C@H](C(C)C)NC(=O)[C@H](Cc2c[nH]c3ccccc23)NC(=O)[C@H](CC(=O)O)NC(=O)[C@H](Cc2ccc(OCC(=O)O)cc2)NC(=O)[C@H](CN)NC(=O)CSC[C@@H](C(=O)N[C@@H](C)C(=O)N[C@@H](Cc2ccc(OCc3ccccc3)cc2)C(N)=O)NC(=O)[C@H]([C@@H](C)O)NC(=O)[C@H](C(C)C)NC(=O)[C@H](CC2CCCCC2)NC(=O)[C@H](CCN)NC1=O [Compound 1535],128

# Same assay, conditions: Jurkat-PD-1 cells, PE-labeled PD-L1-Ig 20 nM final; read-out: Jurkat HPD1_PDL1 IC50
row,IC50 [nM],Compound
1,17.7,CC(C)C[C@H]1NC(=O)[C@H](CCCN)NC(=O)[C@H](C(C)C)NC(=O)[C@H](Cc2ccc(-c3ccccc3)cc2)NC(=O)[C@H](C(C)C)NC(=O)[C@H](Cc2c[nH]c3ccccc23)NC(=O)[C@H](CC(=O)O)NC(=O)[C@H](Cc2ccc(OCC(=O)O)cc2)NC(=O)[C@H](CN)NC(=O)CSC[C@@H](C(=O)N[C@@H](C)C(N)=O)NC(=O)[C@H]([C@@H](C)O)NC(=O)[C@H](C(C)C)NC(=O)[C@H](CC2CCCCC2)NC(=O)[C@H](CC(=O)O)NC1=O [Compound 1521] ({CH2CO}-[Dap]Y(Carboxymethyl)DWV[Bip]V[Orn][dL]D[Cha]VTCA-NH2; thioether N-14)
2,23.3,CC(C)C[C@H]1NC(=O)[C@H](CCCN)NC(=O)[C@H](C(C)C)NC(=O)[C@H](Cc2ccc(-c3ccccc3)cc2)NC(=O)[C@H](C(C)C)NC(=O)[C@H](Cc2c[nH]c3ccccc23)NC(=O)[C@H](CC(=O)O)NC(=O)[C@H](Cc2ccc(OCC(=O)O)cc2)NC(=O)[C@H](CN)NC(=O)CSC[C@@H](C(=O)N[C@@H](C)C(N)=O)NC(=O)[C@H]([C@@H](C)O)NC(=O)[C@H](C(C)C)NC(=O)[C@H](CC2CCCCC2)NC(=O)[C@H](CCC(=O)O)NC1=O [Compound 1522] ({CH2CO}-[Dap]Y(Carboxymethyl)DWV[Bip]V[Orn][dL]E[Cha]VTCA-NH2; thioether N-14)
3,9.2,CC(C)C[C@H]1NC(=O)[C@H](CCCN)NC(=O)[C@H](C(C)C)NC(=O)[C@H](Cc2ccc(-c3ccccc3)cc2)NC(=O)[C@H](C(C)C)NC(=O)[C@H](Cc2c[nH]c3ccccc23)NC(=O)[C@H](CC(=O)O)NC(=O)[C@H](Cc2ccc(OCC(=O)O)cc2)NC(=O)[C@H](CN)NC(=O)CSC[C@@H](C(=O)N[C@@H](C)C(N)=O)NC(=O)[C@H]([C@@H](C)O)NC(=O)[C@H](C(C)C)NC(=O)[C@H](CC2CCCCC2)NC(=O)[C@H]([C@@H](C)O)NC1=O [Compound 1524] ({CH2CO}-[Dap]Y(Carboxymethyl)DWV[Bip]V[Orn][dL]T[Cha]VTCA-NH2; thioether N-14)
4,135,C#CCOc1ccc(C[C@@H]2NC(=O)[C@H](CN)NC(=O)CSC[C@@H](C(=O)NC(CCCCN=[N+]=[N-])C(N)=O)NC(=O)[C@H]([C@@H](C)O)NC(=O)[C@H](C(C)C)NC(=O)[C@H](CC3CCCCC3)NC(=O)[C@H](CCN)NC(=O)[C@@H](CC(C)C)NC(=O)[C@H](CCCN)NC(=O)[C@H](CCC(=O)O)NC(=O)[C@H](Cc3ccc(-c4ccccc4)cc3)NC(=O)[C@H](C(C)C)NC(=O)[C@H](Cc3c[nH]c4ccccc34)NC(=O)[C@H](CC(=O)O)NC2=O)cc1 (stereo partly drawn) [Compound 1538] ({CH2CO}-[Dap]Y(Propargyl)DWV[Bip]E[Orn][dL][Dab][Cha]VTC[ξLys(N3)]-NH2; thioether N-14)
5,85.7,C#CC[C@H](NC(=O)[C@@H]1CSCC(=O)N[C@@H](CN)C(=O)N[C@@H](CN=[N+]=[N-])C(=O)N[C@@H](CC(=O)O)C(=O)N[C@@H](Cc2c[nH]c3ccccc23)C(=O)N[C@@H](C(C)C)C(=O)N[C@@H](Cc2ccc(-c3ccccc3)cc2)C(=O)N[C@@H](CCC(=O)O)C(=O)N[C@@H](CCCN)C(=O)N[C@H](CC(C)C)C(=O)N[C@@H](CCN)C(=O)N[C@@H](CC2CCCCC2)C(=O)N[C@@H](C(C)C)C(=O)N[C@@H]([C@@H](C)O)C(=O)N1)C(N)=O [Compound 1539] ({CH2CO}-[Dap][Dap(N3)]DWV[Bip]E[Orn][dL][Dab][Cha]VTC[Pra]-NH2; thioether N-14)

# Continued, compound first:
row,Compound,IC50 [nM]
1,CC(C)C[C@H]1NC(=O)[C@H](CCCN)NC(=O)[C@H](C(C)C)NC(=O)[C@H](Cc2ccc(-c3ccccc3)cc2)NC(=O)[C@H](C(C)C)NC(=O)[C@H](Cc2c[nH]c3ccccc23)NC(=O)[C@H](CC(=O)O)NC(=O)[C@H](Cc2ccc(OCC(=O)O)cc2)NC(=O)[C@H](CN)NC(=O)CSC[C@@H](C(=O)N[C@@H](C)C(N)=O)NC(=O)[C@H]([C@@H](C)O)NC(=O)[C@H](C(C)C)NC(=O)[C@H](CC2CCCCC2)NC(=O)[C@H](Cc2cnc[nH]2)NC1=O [Compound 1525],15.4
2,C#CCOc1ccc(C[C@@H]2NC(=O)[C@H](CN)NC(=O)CSC[C@@H](C(=O)N[C@@H](CCN=[N+]=[N-])C(N)=O)NC(=O)[C@H]([C@@H](C)O)NC(=O)[C@H](C(C)C)NC(=O)[C@H](CC3CCCCC3)NC(=O)[C@H](CCN)NC(=O)[C@@H](CC(C)C)NC(=O)[C@H](CCCN)NC(=O)[C@H](CCC(=O)O)NC(=O)[C@H](Cc3ccc(-c4ccccc4)cc3)NC(=O)[C@H](C(C)C)NC(=O)[C@H](Cc3c[nH]c4ccccc34)NC(=O)[C@H](CC(=O)O)NC2=O)cc1 [Compound 1536] ({CH2CO}-[Dap]Y(Propargyl)DWV[Bip]E[Orn][dL][Dab][Cha]VTC[Aha]-NH2; thioether N-14),59.3
3,C#CCOc1ccc(C[C@@H]2NC(=O)[C@H](CN)NC(=O)CSC[C@@H](C(=O)N[C@@H](CCCN=[N+]=[N-])C(N)=O)NC(=O)[C@H]([C@@H](C)O)NC(=O)[C@H](C(C)C)NC(=O)[C@H](CC3CCCCC3)NC(=O)[C@H](CCN)NC(=O)[C@@H](CC(C)C)NC(=O)[C@H](CCCN)NC(=O)[C@H](CCC(=O)O)NC(=O)[C@H](Cc3ccc(-c4ccccc4)cc3)NC(=O)[C@H](C(C)C)NC(=O)[C@H](Cc3c[nH]c4ccccc34)NC(=O)[C@H](CC(=O)O)NC2=O)cc1 [Compound 1537] ({CH2CO}-[Dap]Y(Propargyl)DWV[Bip]E[Orn][dL][Dab][Cha]VTC[Orn(N3)]-NH2; thioether N-14),101
